IC50 data for one compound are collected here from patent US12344623B2, “Thiazolopyridine derivatives as adenosine receptor antagonists” (Merck Patent GmbH, priority 2019, dated 2025).

Broadly, the IC50 is the midpoint of a concentration-inhibition curve.

SMILES strings stand for the structures. Where only a bound is given, the exact number is not on record here.

Holding throughout (assay type): cell-based
One experiment has as its target T1, human A1 receptor (Homo sapiens, UniProt P30542).
T1 construct: expressed in transfected cells; host or cells: CHO
T1 sequence (P30542 1-326): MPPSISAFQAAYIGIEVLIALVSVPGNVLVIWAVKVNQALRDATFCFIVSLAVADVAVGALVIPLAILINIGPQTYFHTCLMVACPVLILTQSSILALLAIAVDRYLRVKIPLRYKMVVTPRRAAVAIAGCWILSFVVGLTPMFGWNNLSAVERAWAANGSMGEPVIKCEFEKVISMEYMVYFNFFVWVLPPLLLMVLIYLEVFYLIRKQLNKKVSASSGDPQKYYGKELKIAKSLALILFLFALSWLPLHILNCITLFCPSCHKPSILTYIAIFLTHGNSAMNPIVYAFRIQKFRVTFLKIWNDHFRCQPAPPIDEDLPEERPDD
Nature of the experiment: Functional A1 receptor activity, recombinant CHO cells, cAMP (HTRF), forskolin, agonist CPA. The following applies: recombinant CHO cells, forskolin, agonist CPA; read-out: Functional A1 receptor activity, CHO, cAMP, IC50. In short, it runs like this: (§1)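 Recombinant CHO cells expressing A1 or A3 receptor (Gi-coupled) were stimulated with forskolin together with test compound and agonist (CPA for A1, IB-MECA for A3), incubated 30 min, then cellular cAMP was read by HTRF. Data were normalized to inhibitor control and DMSO neutral control, then curve-fitted.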
A general note: Time-resolved FRET reads energy transfer from a long-lived donor to a nearby acceptor.

A further experiment concerns the target human A2A receptor (Homo sapiens, UniProt P29274). Nature of the experiment: Functional A2A receptor activity, recombinant HEK293 cells, cAMP (HTRF), agonist NECA. The following applies: read-out: Functional A2A receptor activity, HEK293, cAMP, IC50. Further details: expressed in transfected cells; host or cells: HEK293. The gist of the method: (§2)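 Cellular cAMP measured by HTRF after 30 min incubation of cells with forskolin, test compounds and agonist. Data normalized to inhibitor control and DMSO neutral control, then curve-fitted.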

For the next experiment, the target named is T2, human A3 receptor (Homo sapiens, UniProt P0DMS8).
T2 construct: expressed in transfected cells; host or cells: CHO
T2 sequence (P0DMS8 1-318): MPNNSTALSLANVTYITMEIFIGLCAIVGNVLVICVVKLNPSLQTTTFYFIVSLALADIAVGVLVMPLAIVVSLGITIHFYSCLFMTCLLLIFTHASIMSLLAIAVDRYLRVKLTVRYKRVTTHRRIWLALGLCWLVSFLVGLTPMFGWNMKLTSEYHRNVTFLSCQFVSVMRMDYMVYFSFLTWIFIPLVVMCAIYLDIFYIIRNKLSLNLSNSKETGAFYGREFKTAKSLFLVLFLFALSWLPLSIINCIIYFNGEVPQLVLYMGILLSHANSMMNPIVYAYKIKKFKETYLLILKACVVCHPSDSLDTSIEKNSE
Nature of the experiment: Functional A3 receptor activity, recombinant CHO cells, cAMP (HTRF), forskolin, agonist IB-MECA. The following applies: recombinant CHO cells, forskolin, agonist IB-MECA; read-out: Functional A3 receptor activity, CHO, cAMP, IC50. The gist of the method:
as §1

For a further experiment, the target named is T3, human A2B receptor (Homo sapiens, UniProt P29275).
T3 construct: expressed in transfected cells; host or cells: HEK293
T3 sequence (P29275 1-332): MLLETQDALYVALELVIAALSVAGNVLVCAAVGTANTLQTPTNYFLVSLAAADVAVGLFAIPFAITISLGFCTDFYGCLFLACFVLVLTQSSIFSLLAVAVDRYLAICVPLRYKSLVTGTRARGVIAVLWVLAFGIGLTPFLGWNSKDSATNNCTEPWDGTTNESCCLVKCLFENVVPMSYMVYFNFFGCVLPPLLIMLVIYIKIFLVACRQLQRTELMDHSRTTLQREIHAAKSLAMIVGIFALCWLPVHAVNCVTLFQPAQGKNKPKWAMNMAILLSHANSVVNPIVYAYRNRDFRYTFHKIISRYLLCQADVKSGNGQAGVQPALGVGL
Nature of the experiment: Functional A2B receptor activity, recombinant HEK293 cells, cAMP (HTRF), agonist NECA. The following applies: read-out: Functional A2B receptor activity, HEK293, cAMP, IC50. The gist of the method:
as §2

human A2A receptor, sequence (P29274 whole entry): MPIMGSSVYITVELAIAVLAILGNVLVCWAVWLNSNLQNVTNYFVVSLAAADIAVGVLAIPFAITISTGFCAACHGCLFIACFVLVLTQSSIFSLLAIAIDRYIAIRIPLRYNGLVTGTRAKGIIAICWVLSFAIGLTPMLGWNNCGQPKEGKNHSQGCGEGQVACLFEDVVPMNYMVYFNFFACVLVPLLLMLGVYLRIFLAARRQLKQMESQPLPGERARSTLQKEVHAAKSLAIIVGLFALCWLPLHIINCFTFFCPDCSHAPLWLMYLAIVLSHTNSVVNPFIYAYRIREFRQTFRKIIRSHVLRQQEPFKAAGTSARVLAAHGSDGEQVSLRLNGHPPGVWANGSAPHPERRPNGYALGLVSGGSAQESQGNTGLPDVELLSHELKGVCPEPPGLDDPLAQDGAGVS

For the compound `COc1ncc(C2=CCOCC2)c2sc(NC(=O)N3CC[C@@]4(CCCOC4)C3)nc12` [Compound 25, (S)-7-Oxa-2-aza-spiro[4.5]decane-2-carboxylic acid [7-(3,6-dihydro-2H-pyran-4-yl)-4-methoxy-thiazolo[4,5-c]pyridin-2-yl]-amide], the IC50 on human A1 receptor is more than 1000 nM; at human A2A receptor it was less than 10 nM; on human A3 receptor it was more than 1000 nM; on human A2B receptor, less than 10 nM.
